Results: patent US11767310B2, “Nicotinamide RIPK1 inhibitors” (AbbVie Inc., priority 2021, dated 2023)
Marks after values point to notes of the source that are not given here.

Key:
[1] = test system: U937 cells; experiment: U937 TNF/zVAD Cytotoxicity Cell Assay; type: cell-based; conditions: Homo sapiens, U-937; TNFα 10 ng/mL + Z-VAD FMK 20 μM, 16-20 hours; read-out: U937 TNF/zVAD Induced Cytotoxicity IC50
Method: Compounds were tested for their ability to prevent TNF induced necroptosis in U937 cells. Treatment with TNF and the caspase inhibitor zVAD-FMK results in the activation and phosphorylation of RIPK1 and subsequent phosphorylation of RIPK3 and MLKL (Mixed Lineage Kinase Domain Like Pseudokinase), leading to induction of necroptotic cell death that is measured as a reduction in cell viability. Similar U937 assay protocols have been previously described; see, e.g., Harris et al., ACS Med. Chem. Letters (2013) 4:1238-1243 and Supplementary Information.
Test compounds were solvated in dimethyl sulfoxide (DMSO) and 3-fold serially diluted from 10 uM to 0.0005 uM with technical duplicates into an empty 384 well plate. U937 cells were resuspended at a concentration of 500,000 cells/mL in fresh RPMI (Roswell Park Memorial Institute) 1640 growth medium containing 10% heat inactivated fetal bovine serum (FB1S) and seeded into a 384 well plate containing compounds and incubated for 1 hour at 37° C. Following incubation, the cells were challenged with TNFα (final concentration of 10 ng/mL) and Z-VAD FMK (N-Benzyloxycarbonyl-Val-Ala-Asp(O-Me) fluoromethyl ketone; final concentration of 20 μM) for 16-20 hours at 37° C. Following the incubation with TNFα/Z-VAD, cells were lysed with Cell Titer-Glo and incubated for 5-10 minutes. The plate was then read on an Envision plate reader. Data was normalized and analyzed with Studies from Dotmatics.

[2] = Prodrug bioconversion in intestinal S9 cell fractions; type: in vitro ADME; conditions: 0.25 mg/mL
Method: (§1) Phosphatase enzymes are […] expressed with unique tissue specific isoforms and are key catalysts in the conversion of phosphate-containing prodrugs. To determine if exemplary phosphate prodrug compounds of the invention are enzymatically converted to the parent molecule across relevant species, the prodrug compounds were incubated with intestinal S9 cell fractions obtained from mouse, rat, dog, monkey, and human.
Phosphate prodrugs were incubated (1 μM) for up to 2 hours in Tris-Cl buffer (pH 7.4) containing 3 mM magnesium chloride, intestinal S9 protein ([…] (ms, rat, hu, Table F) from mouse, rat, dog, monkey or human. Incubations were conducted in the absence and presence of 1 mM sodium orthovanadate, a phosphatase inhibitor. Prodrug depletion and parent formation were monitored by LC-MS/MS and normalized to internal standard as the analyte peak area ratio.

[3] = as above; type: in vitro ADME
Method: as §1
[…] Incubations were conducted in the absence and presence of 1 mM sodium orthovanadate, a phosphatase inhibitor. Prodrug depletion and parent formation were monitored by LC-MS/MS and normalized to internal standard as the analyte peak area ratio.

[4] = Human, 0.01 mg/mL S9 protein, Table F
[5] = Human, 0.25 mg/mL S9 protein, Table F
[6] = Human, 0.25 mg/mL, Experiment 1
[7] = Human, 0.25 mg/mL, Experiment 2
[8] = Human, 0.25 mg/mL, Experiment 3
[9] = Human, 0.25 mg/mL, Mean of 3 experiments
[10] = Mouse, 0.01 mg/mL S9 protein, Table F
[11] = Mouse, 0.25 mg/mL S9 protein, Table F
[12] = Mouse, 0.25 mg/mL, Experiment 1
[13] = Mouse, 0.25 mg/mL, Experiment 2
[14] = Mouse, 0.25 mg/mL, Experiment 3
[15] = Mouse, 0.25 mg/mL, Mean of 3 experiments
[16] = Rat, 0.01 mg/mL S9 protein, Table F
[17] = Rat, 0.25 mg/mL S9 protein, Table F
[18] = Rat, 0.25 mg/mL, Mean of 3 experiments

SMILES | Clint (prodrug disappearance) ([2]; Dog, Experiment 1) | Clint (prodrug disappearance) ([2]; Dog, Experiment 2) | Clint (prodrug disappearance) ([2]; Dog, Experiment 3) | Clint (prodrug disappearance) ([2]; Dog, Mean of 3 experiments) | Clint (prodrug disappearance) ([2]; Monkey, Experiment 1) | Clint (prodrug disappearance) ([2]; Monkey, Experiment 2) | Clint (prodrug disappearance) ([2]; Monkey, Experiment 3) | Clint (prodrug disappearance) ([2]; Monkey, Mean of 3 experiments) | Clint (prodrug disappearance) [3, 4] | Clint (prodrug disappearance) [3, 5] | Clint (prodrug disappearance) [3, 6] | Clint (prodrug disappearance) [3, 7] | Clint (prodrug disappearance) [3, 8] | Clint (prodrug disappearance) [3, 9] | Clint (prodrug disappearance) [3, 10] | Clint (prodrug disappearance) [3, 11] | Clint (prodrug disappearance) [3, 12] | Clint (prodrug disappearance) [3, 13] | Clint (prodrug disappearance) [3, 14] | IC50 [1] | further results
CN(C[C@@H](O)Cc1ccccc1)C(=O)c1cncc(C#Cc2cnn(C)c2)c1 [Example 1, (S)-N-(2-hydroxy-3-phenylpropyl)-N-methyl-5-((1-methyl-1H-pyrazol-4-yl)ethynyl)nicotinamide] |  |  |  |  |  |  |  |  |  |  |  |  |  |  |  |  |  |  |  | 34 nM | 
Cc1ncc(C(=O)N(C)C[C@@H](O)Cc2ccccc2)cc1C#Cc1cnn(C)c1 [Example 14, (S)-N-(2-hydroxy-3-phenylpropyl)-N,6-dimethyl-5-((1-methyl-1H-pyrazol-4-yl)ethynyl)nicotinamide] |  |  |  |  |  |  |  |  |  |  |  |  |  |  |  |  |  |  |  | 18 nM | 
Cc1ncc(C(=O)NC[C@@H](O)Cc2ccccc2)cc1C#Cc1cncs1 [Example 16, (S)-N-(2-hydroxy-3-phenylpropyl)-6-methyl-5-(thiazol-5-ylethynyl)nicotinamide] |  |  |  |  |  |  |  |  |  |  |  |  |  |  |  |  |  |  |  | 2580 nM | 
CN(C[C@H](Cc1ccccc1)OC(=O)CN)C(=O)c1cncc(C#Cc2cnn(C(F)F)c2)c1 [Example 21, (S)-1-(5-((1-(difluoromethyl)-1H-pyrazol-4-yl)ethynyl)-N-methylnicotinamido)-3-phenylpropan-2-yl 2-aminoacetate, hydrochloric acid] | 5.62 μL/min/mg intestinal S9 protein | 16.1 μL/min/mg intestinal S9 protein | 14.3 μL/min/mg intestinal S9 protein | 12.0 μL/min/mg intestinal S9 protein | 89.6 μL/min/mg intestinal S9 protein | 91.3 μL/min/mg intestinal S9 protein | 90.7 μL/min/mg intestinal S9 protein | 90.5 μL/min/mg intestinal S9 protein | 815.9 μL/min/mg intestinal S9 protein | 592.9 μL/min/mg intestinal S9 protein | 391 μL/min/mg intestinal S9 protein | 400 μL/min/mg intestinal S9 protein | 355 μL/min/mg intestinal S9 protein | 382 μL/min/mg intestinal S9 protein | 11160 μL/min/mg intestinal S9 protein | >4166.5* μL/min/mg intestinal S9 protein | >480* μL/min/mg intestinal S9 protein | >480* μL/min/mg intestinal S9 protein | >480* μL/min/mg intestinal S9 protein |  | Clint (prodrug disappearance) [3, 15]: >480* μL/min/mg intestinal S9 protein; Clint (prodrug disappearance) [3, 16]: 2599.5 μL/min/mg intestinal S9 protein; Clint (prodrug disappearance) [3, 17]: 901.6 μL/min/mg intestinal S9 protein; Clint (prodrug disappearance) ([3]; Rat, 0.25 mg/mL, Experiment 1): 396 μL/min/mg intestinal S9 protein; Clint (prodrug disappearance) ([3]; Rat, 0.25 mg/mL, Experiment 2): 719 μL/min/mg intestinal S9 protein; Clint (prodrug disappearance) ([3]; Rat, 0.25 mg/mL, Experiment 3): 750 μL/min/mg intestinal S9 protein; Clint (prodrug disappearance) [3, 18]: 622 μL/min/mg intestinal S9 protein

Second part, led by results:

Clint (prodrug disappearance) ([2]; Dog, Experiment 1) | Clint (prodrug disappearance) ([2]; Dog, Experiment 2) | Clint (prodrug disappearance) ([2]; Dog, Experiment 3) | Clint (prodrug disappearance) ([2]; Dog, Mean of 3 experiments) | Clint (prodrug disappearance) ([2]; Monkey, Experiment 1) | Clint (prodrug disappearance) ([2]; Monkey, Experiment 2) | Clint (prodrug disappearance) ([2]; Monkey, Experiment 3) | Clint (prodrug disappearance) ([2]; Monkey, Mean of 3 experiments) | Clint (prodrug disappearance) [3, 4] | Clint (prodrug disappearance) [3, 5] | Clint (prodrug disappearance) [3, 6] | Clint (prodrug disappearance) [3, 7] | Clint (prodrug disappearance) [3, 8] | Clint (prodrug disappearance) [3, 9] | Clint (prodrug disappearance) [3, 10] | Clint (prodrug disappearance) [3, 11] | Clint (prodrug disappearance) [3, 12] | Clint (prodrug disappearance) [3, 13] | Clint (prodrug disappearance) [3, 14] | SMILES | IC50 [1] | further results
354 μL/min/mg intestinal S9 protein | 369 μL/min/mg intestinal S9 protein | 345 μL/min/mg intestinal S9 protein | 356 μL/min/mg intestinal S9 protein | 55.4 μL/min/mg intestinal S9 protein | 47.7 μL/min/mg intestinal S9 protein | 48.1 μL/min/mg intestinal S9 protein | 50.4 μL/min/mg intestinal S9 protein | 1180.2 μL/min/mg intestinal S9 protein | 243.4 μL/min/mg intestinal S9 protein | 199 μL/min/mg intestinal S9 protein | 241 μL/min/mg intestinal S9 protein | 203 μL/min/mg intestinal S9 protein | 214 μL/min/mg intestinal S9 protein | <137** μL/min/mg intestinal S9 protein | 23.3 μL/min/mg intestinal S9 protein | 26.2 μL/min/mg intestinal S9 protein | 34.3 μL/min/mg intestinal S9 protein | 31.3 μL/min/mg intestinal S9 protein | CN(C[C@H](Cc1ccccc1)OP(=O)(O)O)C(=O)c1cncc(C#Cc2cnn(C)n2)c1 [Example 23, (S)-1-(N-methyl-5-((2-methyl-2H-1,2,3-triazol-4-yl)ethynyl)nicotinamido)-3-phenylpropan-2-yl dihydrogen phosphate] |  | Clint (prodrug disappearance) [3, 15]: 30.6 μL/min/mg intestinal S9 protein; Clint (prodrug disappearance) [3, 16]: <137** μL/min/mg intestinal S9 protein; Clint (prodrug disappearance) [3, 17]: 36.7 μL/min/mg intestinal S9 protein; Clint (prodrug disappearance) ([3]; Rat, 0.25 mg/mL, Experiment 1): 29.1 μL/min/mg intestinal S9 protein; Clint (prodrug disappearance) ([3]; Rat, 0.25 mg/mL, Experiment 2): 33.8 μL/min/mg intestinal S9 protein; Clint (prodrug disappearance) ([3]; Rat, 0.25 mg/mL, Experiment 3): 28.2 μL/min/mg intestinal S9 protein; Clint (prodrug disappearance) [3, 18]: 30.4 μL/min/mg intestinal S9 protein
10.2 μL/min/mg intestinal S9 protein | 14.4 μL/min/mg intestinal S9 protein | 11.5 μL/min/mg intestinal S9 protein | 12.0 μL/min/mg intestinal S9 protein | 38.1 μL/min/mg intestinal S9 protein | 49.0 μL/min/mg intestinal S9 protein | 40.7 μL/min/mg intestinal S9 protein | 42.6 μL/min/mg intestinal S9 protein | 378.1 μL/min/mg intestinal S9 protein | 410 μL/min/mg intestinal S9 protein | 272 μL/min/mg intestinal S9 protein | 294 μL/min/mg intestinal S9 protein | 293 μL/min/mg intestinal S9 protein | 286 μL/min/mg intestinal S9 protein | 6821.9 μL/min/mg intestinal S9 protein | >1640.7* μL/min/mg intestinal S9 protein | >480* μL/min/mg intestinal S9 protein | >480* μL/min/mg intestinal S9 protein | >480* μL/min/mg intestinal S9 protein | CN(C[C@H](Cc1ccccc1)OC(=O)CN)C(=O)c1cncc(C#Cc2cnn(C)n2)c1 [Example 25, (S)-1-(N-methyl-5-((2-methyl-2H-1,2,3-triazol-4-yl)ethynyl)nicotinamido)-3-phenylpropan-2-yl 2-aminoacetate, hydrochloric acid] |  | Clint (prodrug disappearance) [3, 15]: >480* μL/min/mg intestinal S9 protein; Clint (prodrug disappearance) [3, 16]: 1087.6 μL/min/mg intestinal S9 protein; Clint (prodrug disappearance) [3, 17]: 393.8 μL/min/mg intestinal S9 protein; Clint (prodrug disappearance) ([3]; Rat, 0.25 mg/mL, Experiment 1): 217 μL/min/mg intestinal S9 protein; Clint (prodrug disappearance) ([3]; Rat, 0.25 mg/mL, Experiment 2): 318 μL/min/mg intestinal S9 protein; Clint (prodrug disappearance) ([3]; Rat, 0.25 mg/mL, Experiment 3): 299 μL/min/mg intestinal S9 protein; Clint (prodrug disappearance) [3, 18]: 278 μL/min/mg intestinal S9 protein
